Structures are written as SMILES.

One compound from ChEMBL document CHEMBL3525934 (Drug Metab Dispos, 2013) can be followed below.

Holding throughout (type): ADME
Holding throughout (settings): 0.5 h

For series [1], the target named is T1, Cytochrome P450 1B1 (Homo sapiens, UniProt Q16678).
T1 sequence (Q16678 whole entry): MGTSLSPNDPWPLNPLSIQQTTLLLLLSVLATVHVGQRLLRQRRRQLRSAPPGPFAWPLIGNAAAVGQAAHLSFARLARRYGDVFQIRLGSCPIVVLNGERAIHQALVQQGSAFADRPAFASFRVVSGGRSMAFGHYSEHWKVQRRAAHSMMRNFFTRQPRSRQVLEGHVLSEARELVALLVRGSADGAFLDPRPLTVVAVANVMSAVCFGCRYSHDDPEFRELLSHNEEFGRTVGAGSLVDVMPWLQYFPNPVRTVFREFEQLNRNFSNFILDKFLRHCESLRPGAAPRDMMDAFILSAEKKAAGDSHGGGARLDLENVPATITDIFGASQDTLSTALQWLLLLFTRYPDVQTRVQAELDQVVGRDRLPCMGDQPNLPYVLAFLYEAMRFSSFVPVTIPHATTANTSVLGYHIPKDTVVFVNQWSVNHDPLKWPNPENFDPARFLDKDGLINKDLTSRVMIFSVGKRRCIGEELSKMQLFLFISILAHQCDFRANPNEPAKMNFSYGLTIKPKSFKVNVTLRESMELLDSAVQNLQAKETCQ
The series can be described thus: Drug metabolism in supersomes expressing human recombinant CYP1B1 assessed as enzyme-mediated clozapine-N-oxide metabolite formation at 10 uM after 30 mins measured per nmol of P450 by HPLC analysis.

For series [2], the target named is T2, Cytochrome P450 1A2 (Homo sapiens, UniProt P05177).
T2 sequence (P05177 whole entry): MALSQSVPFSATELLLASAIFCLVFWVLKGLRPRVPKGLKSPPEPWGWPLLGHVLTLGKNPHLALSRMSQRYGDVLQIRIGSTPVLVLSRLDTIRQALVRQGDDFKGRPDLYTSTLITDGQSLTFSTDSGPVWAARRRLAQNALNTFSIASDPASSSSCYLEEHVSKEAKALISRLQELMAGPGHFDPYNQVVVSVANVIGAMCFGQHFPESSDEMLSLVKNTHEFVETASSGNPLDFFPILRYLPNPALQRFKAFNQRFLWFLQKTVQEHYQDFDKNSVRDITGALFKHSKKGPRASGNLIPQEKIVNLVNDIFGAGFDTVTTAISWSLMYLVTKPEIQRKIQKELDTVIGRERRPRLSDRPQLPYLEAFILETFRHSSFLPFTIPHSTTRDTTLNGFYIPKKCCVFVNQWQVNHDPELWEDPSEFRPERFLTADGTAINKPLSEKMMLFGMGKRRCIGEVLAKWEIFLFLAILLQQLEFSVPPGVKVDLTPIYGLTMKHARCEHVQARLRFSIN
The series can be described thus: Drug metabolism in supersomes expressing human recombinant CYP1A2 assessed as enzyme-mediated N-desmethylclozapine metabolite formation at 10 uM after 30 mins measured per nmol of P450 by HPLC analysis.

Series [3] concerns the target T3, Cytochrome P450 1A1 (Homo sapiens, UniProt P04798).
T3 sequence (P04798 whole entry): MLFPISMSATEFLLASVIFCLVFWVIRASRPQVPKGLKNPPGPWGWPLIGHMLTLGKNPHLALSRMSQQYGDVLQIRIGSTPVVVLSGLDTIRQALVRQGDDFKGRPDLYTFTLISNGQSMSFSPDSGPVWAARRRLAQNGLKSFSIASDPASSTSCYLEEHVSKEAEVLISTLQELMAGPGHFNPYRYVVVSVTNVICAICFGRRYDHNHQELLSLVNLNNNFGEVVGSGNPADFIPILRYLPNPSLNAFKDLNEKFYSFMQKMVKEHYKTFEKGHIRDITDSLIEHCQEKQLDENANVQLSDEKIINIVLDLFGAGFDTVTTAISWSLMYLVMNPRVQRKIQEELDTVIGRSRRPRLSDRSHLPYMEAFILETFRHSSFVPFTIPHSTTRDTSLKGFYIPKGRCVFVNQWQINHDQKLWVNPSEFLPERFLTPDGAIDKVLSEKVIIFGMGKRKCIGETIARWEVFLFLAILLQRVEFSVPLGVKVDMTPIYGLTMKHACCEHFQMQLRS
The series is described as follows: Drug metabolism in supersomes expressing human recombinant CYP1A1 assessed as enzyme-mediated clozapine-N-oxide metabolite formation at 10 uM after 30 mins measured per nmol of P450 by HPLC analysis.

Series [4] addresses T4, Cytochrome P450 2A6 (Homo sapiens, UniProt P11509).
T4 sequence (P11509 whole entry): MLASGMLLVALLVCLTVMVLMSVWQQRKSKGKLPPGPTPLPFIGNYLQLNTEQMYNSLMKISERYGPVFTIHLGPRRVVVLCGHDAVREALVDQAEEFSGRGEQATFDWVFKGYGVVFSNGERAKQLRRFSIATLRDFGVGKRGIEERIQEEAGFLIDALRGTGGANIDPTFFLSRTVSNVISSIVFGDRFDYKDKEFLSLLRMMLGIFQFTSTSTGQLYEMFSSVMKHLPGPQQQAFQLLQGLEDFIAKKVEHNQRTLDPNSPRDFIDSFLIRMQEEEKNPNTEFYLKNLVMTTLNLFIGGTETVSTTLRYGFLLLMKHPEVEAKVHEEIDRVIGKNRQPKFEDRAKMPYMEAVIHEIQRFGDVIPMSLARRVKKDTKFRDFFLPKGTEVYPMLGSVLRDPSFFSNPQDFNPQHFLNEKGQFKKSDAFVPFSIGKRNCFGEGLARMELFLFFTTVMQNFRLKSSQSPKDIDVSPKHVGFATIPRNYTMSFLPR
The series can be described thus: Drug metabolism in supersomes expressing human recombinant CYP2A6 assessed as enzyme-mediated cyanide adduct formation at 100 uM after 30 mins measured per nmol of P450 by HPLC analysis in presence of KCN.

For series [5], the target named is T1, Cytochrome P450 1B1. The series is described as follows: Drug metabolism in supersomes expressing human recombinant CYP1B1 assessed as enzyme-mediated total GSH conjugate formation at 10 uM after 30 mins measured per nmol of P450 by HPLC analysis in presence of GSH and hGST P1-1.
The target of series [6] is T3, Cytochrome P450 1A1. The series can be described thus: Drug metabolism in supersomes expressing human recombinant CYP1A1 assessed as enzyme-mediated total GSH conjugate formation at 10 uM after 30 mins measured per nmol of P450 by HPLC analysis in presence of GSH and hGST P1-1.

Turning to `CN1CCN(C2=Nc3cc(Cl)ccc3Nc3ccccc32)CC1` [CLOZAPINE], the Drug metabolism in series [1] came to 0.84 nmol/min; in series [2], 1.12 nmol/min; in series [3], 0.24 nmol/min; in series [4] it was 0.17 nmol/min; in series [5], 0.15 nmol/min; in series [6] it was 0.3 nmol/min.
